ChEMBL document CHEMBL5291721, “A preclinical secondary pharmacology resource illuminates target-adverse drug reaction associations of marketed drugs” (Nat Commun, 2023)

Columns and labels:
[1] = target: T1, Adenosine receptor A1 (Homo sapiens, UniProt P30542)
T1 sequence (P30542 whole entry): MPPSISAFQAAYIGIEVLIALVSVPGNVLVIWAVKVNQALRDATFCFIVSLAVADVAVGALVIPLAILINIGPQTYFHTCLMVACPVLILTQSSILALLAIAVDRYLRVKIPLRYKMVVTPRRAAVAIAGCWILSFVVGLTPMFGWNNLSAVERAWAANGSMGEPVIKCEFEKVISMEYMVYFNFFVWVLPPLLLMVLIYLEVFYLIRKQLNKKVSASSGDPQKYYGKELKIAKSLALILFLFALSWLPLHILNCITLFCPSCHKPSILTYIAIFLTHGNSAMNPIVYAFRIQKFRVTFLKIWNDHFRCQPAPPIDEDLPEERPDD

[2] = target: T2, Adenosine receptor A3 (Homo sapiens, UniProt P0DMS8)
T2 sequence (P0DMS8 whole entry): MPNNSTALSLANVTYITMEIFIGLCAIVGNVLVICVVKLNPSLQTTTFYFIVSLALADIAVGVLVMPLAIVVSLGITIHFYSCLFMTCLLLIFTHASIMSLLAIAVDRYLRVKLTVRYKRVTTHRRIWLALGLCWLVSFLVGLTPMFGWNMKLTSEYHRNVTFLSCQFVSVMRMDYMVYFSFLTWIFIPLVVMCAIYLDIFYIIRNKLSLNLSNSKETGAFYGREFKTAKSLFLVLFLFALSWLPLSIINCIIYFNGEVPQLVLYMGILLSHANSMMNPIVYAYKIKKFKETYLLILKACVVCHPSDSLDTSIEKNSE

[3] = target: T3, Alpha-1A adrenergic receptor (Homo sapiens, UniProt P35348); assay type: functional, cell-based
T3 sequence (P35348 whole entry): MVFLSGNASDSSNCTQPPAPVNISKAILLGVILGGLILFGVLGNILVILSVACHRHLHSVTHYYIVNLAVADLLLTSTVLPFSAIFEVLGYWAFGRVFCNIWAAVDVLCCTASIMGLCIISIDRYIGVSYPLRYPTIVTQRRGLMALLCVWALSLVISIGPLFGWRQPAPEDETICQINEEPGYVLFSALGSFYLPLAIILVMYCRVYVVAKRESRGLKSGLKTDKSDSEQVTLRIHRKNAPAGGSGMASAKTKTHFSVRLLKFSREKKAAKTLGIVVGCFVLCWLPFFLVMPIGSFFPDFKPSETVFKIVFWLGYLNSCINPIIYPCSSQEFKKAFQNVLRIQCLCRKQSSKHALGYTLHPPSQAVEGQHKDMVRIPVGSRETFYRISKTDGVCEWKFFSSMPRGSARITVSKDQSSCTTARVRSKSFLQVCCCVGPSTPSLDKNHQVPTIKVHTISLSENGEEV

[4] = target: Beta-2 adrenergic receptor (Homo sapiens, UniProt P07550)
Sequence of Beta-2 adrenergic receptor (P07550 whole entry): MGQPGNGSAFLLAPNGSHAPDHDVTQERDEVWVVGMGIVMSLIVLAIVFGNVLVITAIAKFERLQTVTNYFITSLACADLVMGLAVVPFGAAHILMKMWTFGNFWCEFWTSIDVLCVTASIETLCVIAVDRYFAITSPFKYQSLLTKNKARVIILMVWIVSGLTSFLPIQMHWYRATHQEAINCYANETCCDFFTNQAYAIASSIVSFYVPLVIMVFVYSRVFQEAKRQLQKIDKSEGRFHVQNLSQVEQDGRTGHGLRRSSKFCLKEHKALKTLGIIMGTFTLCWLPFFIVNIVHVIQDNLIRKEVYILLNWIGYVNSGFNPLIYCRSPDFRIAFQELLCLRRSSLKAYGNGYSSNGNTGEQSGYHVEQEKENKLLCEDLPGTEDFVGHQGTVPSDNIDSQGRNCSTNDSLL

[5] = target: Vasopressin V2 receptor (Homo sapiens, UniProt P30518)
Sequence of Vasopressin V2 receptor (P30518 whole entry): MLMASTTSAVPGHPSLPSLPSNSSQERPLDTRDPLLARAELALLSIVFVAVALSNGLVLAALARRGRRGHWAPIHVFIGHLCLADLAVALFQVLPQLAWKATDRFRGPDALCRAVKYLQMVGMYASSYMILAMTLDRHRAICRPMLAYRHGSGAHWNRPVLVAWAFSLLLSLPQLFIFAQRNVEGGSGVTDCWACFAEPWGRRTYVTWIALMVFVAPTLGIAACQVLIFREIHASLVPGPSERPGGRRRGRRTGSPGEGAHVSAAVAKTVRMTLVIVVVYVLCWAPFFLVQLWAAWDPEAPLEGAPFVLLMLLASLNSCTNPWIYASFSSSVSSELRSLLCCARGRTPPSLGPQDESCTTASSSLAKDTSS

[6] = target: Cannabinoid receptor 1 (Homo sapiens, UniProt P21554); assay type: functional, cell-based
Sequence of Cannabinoid receptor 1 (P21554 whole entry): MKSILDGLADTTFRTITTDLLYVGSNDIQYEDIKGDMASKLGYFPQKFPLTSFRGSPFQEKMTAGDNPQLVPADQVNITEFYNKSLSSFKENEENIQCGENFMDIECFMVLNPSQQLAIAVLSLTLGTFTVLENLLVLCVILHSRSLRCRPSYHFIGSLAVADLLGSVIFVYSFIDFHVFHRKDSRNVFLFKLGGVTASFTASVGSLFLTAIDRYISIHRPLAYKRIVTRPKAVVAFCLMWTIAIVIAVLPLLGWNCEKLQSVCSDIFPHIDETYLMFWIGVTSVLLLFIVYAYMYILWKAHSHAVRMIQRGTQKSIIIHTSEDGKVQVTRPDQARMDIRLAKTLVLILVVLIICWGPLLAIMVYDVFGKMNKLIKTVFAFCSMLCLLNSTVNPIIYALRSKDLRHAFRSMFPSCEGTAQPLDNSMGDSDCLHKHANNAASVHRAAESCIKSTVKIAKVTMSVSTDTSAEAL

[7] = target: Melanocortin receptor 4 (Homo sapiens, UniProt P32245)
Sequence of Melanocortin receptor 4 (P32245 whole entry): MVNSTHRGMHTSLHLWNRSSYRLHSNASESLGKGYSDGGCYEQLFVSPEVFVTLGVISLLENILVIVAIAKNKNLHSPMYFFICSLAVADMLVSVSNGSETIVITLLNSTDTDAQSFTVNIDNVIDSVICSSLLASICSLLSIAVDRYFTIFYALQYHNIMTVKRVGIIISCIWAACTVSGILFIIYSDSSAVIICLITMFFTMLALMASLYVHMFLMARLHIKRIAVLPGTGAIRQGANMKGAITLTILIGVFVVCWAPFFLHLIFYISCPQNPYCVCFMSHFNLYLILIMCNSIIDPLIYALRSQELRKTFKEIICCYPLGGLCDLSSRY

[8] = target: T4, Neuropeptide Y receptor type 1 (Homo sapiens, UniProt P25929)
T4 sequence (P25929 whole entry): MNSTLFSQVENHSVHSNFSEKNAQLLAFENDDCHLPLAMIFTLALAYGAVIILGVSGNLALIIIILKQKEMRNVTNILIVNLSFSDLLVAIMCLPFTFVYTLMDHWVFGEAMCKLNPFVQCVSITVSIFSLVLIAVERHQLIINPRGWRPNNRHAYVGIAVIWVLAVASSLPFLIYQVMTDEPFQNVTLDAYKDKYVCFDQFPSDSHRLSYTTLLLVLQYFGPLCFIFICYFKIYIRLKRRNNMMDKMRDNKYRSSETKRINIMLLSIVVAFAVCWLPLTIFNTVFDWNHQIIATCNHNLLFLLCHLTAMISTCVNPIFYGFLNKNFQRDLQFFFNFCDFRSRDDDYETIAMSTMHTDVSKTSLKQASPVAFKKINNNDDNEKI

[9] = target: T5, Prostaglandin G/H synthase 1 (Rattus norvegicus, UniProt Q63921); assay type: functional
T5 sequence (Q63921 whole entry): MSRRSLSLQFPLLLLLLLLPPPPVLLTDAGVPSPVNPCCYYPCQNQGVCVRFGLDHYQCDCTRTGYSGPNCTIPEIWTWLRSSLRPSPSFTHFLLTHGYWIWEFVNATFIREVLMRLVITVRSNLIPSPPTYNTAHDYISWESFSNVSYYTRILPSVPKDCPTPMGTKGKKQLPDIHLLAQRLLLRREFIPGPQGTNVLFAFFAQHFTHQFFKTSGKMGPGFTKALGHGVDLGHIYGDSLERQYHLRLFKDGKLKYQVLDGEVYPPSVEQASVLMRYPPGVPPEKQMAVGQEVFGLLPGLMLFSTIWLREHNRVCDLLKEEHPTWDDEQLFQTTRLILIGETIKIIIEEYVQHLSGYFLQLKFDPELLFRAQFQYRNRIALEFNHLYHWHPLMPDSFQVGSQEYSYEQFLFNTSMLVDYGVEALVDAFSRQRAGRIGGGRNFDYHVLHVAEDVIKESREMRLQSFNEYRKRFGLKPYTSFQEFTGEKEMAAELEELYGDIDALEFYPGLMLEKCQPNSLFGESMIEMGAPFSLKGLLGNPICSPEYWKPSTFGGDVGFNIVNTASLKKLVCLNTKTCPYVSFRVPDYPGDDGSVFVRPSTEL

[10] = target: cGMP-inhibited 3',5'-cyclic phosphodiesterase 3A (Homo sapiens, UniProt Q14432); assay type: functional
Sequence of cGMP-inhibited 3',5'-cyclic phosphodiesterase 3A (Q14432 whole entry): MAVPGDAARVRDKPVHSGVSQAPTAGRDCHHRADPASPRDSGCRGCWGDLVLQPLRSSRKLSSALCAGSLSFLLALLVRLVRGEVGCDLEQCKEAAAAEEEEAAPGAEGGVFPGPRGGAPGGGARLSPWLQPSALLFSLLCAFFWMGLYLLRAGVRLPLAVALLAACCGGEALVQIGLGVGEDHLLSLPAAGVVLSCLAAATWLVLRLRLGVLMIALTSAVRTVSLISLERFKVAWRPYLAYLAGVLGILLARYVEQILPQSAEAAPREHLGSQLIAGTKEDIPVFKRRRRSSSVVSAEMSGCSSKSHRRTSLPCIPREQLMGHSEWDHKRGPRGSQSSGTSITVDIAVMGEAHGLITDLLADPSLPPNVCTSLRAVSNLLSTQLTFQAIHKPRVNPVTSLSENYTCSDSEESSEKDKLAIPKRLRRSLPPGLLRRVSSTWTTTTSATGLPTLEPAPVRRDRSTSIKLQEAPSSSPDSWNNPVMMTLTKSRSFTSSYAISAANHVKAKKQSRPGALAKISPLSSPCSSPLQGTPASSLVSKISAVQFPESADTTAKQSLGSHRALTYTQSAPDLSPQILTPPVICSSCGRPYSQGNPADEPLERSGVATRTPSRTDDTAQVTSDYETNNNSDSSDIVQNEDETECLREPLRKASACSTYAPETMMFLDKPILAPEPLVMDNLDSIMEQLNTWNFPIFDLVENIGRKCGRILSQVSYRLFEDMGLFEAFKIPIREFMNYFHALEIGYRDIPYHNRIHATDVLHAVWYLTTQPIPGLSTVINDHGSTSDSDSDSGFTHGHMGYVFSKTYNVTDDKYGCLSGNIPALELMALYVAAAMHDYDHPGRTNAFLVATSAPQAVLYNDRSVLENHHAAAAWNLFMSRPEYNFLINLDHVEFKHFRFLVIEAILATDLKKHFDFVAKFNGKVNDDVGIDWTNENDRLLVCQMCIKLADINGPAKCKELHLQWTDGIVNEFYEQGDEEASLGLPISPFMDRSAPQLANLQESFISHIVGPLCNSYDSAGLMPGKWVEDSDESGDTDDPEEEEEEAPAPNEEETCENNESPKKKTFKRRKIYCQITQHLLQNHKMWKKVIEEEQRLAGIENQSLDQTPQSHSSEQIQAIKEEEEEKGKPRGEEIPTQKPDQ

[11] = target: T6, Gastrin/cholecystokinin type B receptor (Homo sapiens, UniProt P32239)
T6 sequence (P32239 whole entry): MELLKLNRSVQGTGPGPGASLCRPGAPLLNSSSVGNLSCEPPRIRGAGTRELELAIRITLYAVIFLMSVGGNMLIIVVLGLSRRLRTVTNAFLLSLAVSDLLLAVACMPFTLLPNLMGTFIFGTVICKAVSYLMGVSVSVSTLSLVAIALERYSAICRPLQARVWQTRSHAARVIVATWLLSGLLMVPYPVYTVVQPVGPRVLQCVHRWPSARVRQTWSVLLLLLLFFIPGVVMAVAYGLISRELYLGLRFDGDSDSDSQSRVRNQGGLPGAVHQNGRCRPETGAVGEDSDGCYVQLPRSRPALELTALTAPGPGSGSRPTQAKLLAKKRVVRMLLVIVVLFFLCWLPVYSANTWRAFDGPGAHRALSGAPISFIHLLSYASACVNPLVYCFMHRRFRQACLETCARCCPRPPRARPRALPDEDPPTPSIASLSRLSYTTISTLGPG
Also: assay procedure not described here.

Compound	AC50 [1] [µM]	AC50 [2] [µM]	AC50 [3] [µM]	AC50 [4] [µM]	AC50 [5] [µM]	AC50 [6] [µM]	AC50 [7] [µM]	AC50 [8] [µM]	AC50 [9] [µM]	AC50 [10] [µM]	AC50 [11] [µM]
O=C(C[S+]([O-])Cc1ccco1)NC/C=C\COc1cc(CN2CCCCC2)ccn1 (stereo not drawn) [LAFUTIDINE]	> 10	> 10	> 30	> 10	> 10	> 30	> 10	> 10	> 10	> 30	–
CC(=O)OCC1=C(C(=O)O)N2C(=O)[C@@H](NC(=O)CSc3ccncc3)[C@H]2SC1 [CEPHAPIRIN]	> 10	> 10	–	> 10	> 10	–	> 10	> 10	> 10	> 30	–
CCC1(C)CC(=O)NC1=O (stereo not drawn) [ETHOSUXIMIDE]	> 10	> 10	–	> 10	> 10	–	> 10	> 10	> 10	> 30	–
CCOC(=O)O[C@]1(C(=O)COC(=O)CC)CC[C@H]2[C@@H]3CCC4=CC(=O)C=C[C@]4(C)[C@H]3[C@@H](O)C[C@@]21C [PREDNICARBATE]	> 10	> 10	–	> 10	> 10	–	> 10	> 10	> 10	> 30	–
CC(=O)N1CCN(c2ccc(OCC3COC(Cn4ccnc4)(c4ccc(Cl)cc4Cl)O3)cc2)CC1 (stereo not drawn) [KETOCONAZOLE]	> 30	17.7	–	> 10	> 10	> 30	> 10	> 10	> 10	> 30	–
CN(C)CCOC(=O)C(c1ccccc1)C1(O)CCCC1 (stereo not drawn) [CYCLOPENTOLATE]	> 10	> 10	–	> 10	> 10	–	> 10	> 10	> 10	> 30	–
CC1CC(OC(=O)C(O)c2ccccc2)CC(C)(C)C1 (stereo not drawn) [CYCLANDELATE]	> 10	> 10	–	> 10	> 10	–	> 10	> 10	> 10	> 30	–
OCC(O)COc1ccc(Cl)cc1 (stereo not drawn)	> 10	> 10	–	> 10	> 10	–	> 10	> 10	> 10	> 30	–
CN(Cc1ccc(C(C)(C)C)cc1)Cc1cccc2ccccc12 [BUTENAFINE]	> 10	> 10	–	> 10	> 10	–	> 10	> 10	> 10	> 30	–
Nc1ccc(S(=O)(=O)Nc2ncccn2)cc1 [SULFADIAZINE]	> 10	> 10	–	> 10	> 10	–	> 10	> 10	> 10	> 30	–
OCCN(CCO)c1nc(N2CCCCC2)c2nc(N(CCO)CCO)nc(N3CCCCC3)c2n1 [DIPYRIDAMOLE]	> 30	24.7	3.5	–	> 30	–	> 30	> 30	> 30	> 30	> 30
CCC(=O)[C@@]1(C)[C@H](C)C[C@H]2[C@@H]3CCC4=CC(=O)C=C[C@]4(C)[C@H]3[C@@H](O)C[C@@]21C [RIMEXOLONE]	> 10	> 10	–	> 10	> 10	–	> 10	> 10	> 10	> 30	–
CCN(CC)CC(=O)Nc1c(C)cccc1C [LIDOCAINE]	> 30	> 30	–	–	> 30	–	22.7	> 30	> 30	> 10	> 30
CN1CCC(=C2c3ccccc3CC(=O)c3sccc32)CC1 [KETOTIFEN]	> 10	> 10	> 30	> 10	> 10	16	> 10	> 10	> 10	> 30	–
CC(C(=O)O)c1ccc(C(=O)c2ccccc2)s1 (stereo not drawn) [TIAPROFENIC ACID]	> 10	> 10	> 30	> 10	> 10	> 30	> 10	> 10	0.365	> 30	–
C[C@@H](Cc1ccccc1)N(C)Cc1ccccc1 [BENZPHETAMINE]	> 10	> 10	> 30	> 10	> 10	> 30	> 10	> 10	> 10	> 30	–
CN1C(=O)CN=C(c2ccccc2F)c2cc([N+](=O)[O-])ccc21 [FLUNITRAZEPAM]	> 30	> 30	> 30	> 10	> 30	> 30	> 30	> 30	> 30	> 30	–
CC(=O)[C@@]1(O)CC[C@H]2[C@@H]3C[C@H](C)C4=CC(=O)C=C[C@]4(C)[C@@]3(F)[C@@H](O)C[C@@]21C [FLUOROMETHOLONE]	> 10	> 10	> 30	> 10	> 10	> 30	> 10	> 10	> 10	> 30	–
